Data taken from PubChem BioAssay AID2060487 (Molecular Pharmacology Branch, DTP, NCI, 2025).
Each block holds one molecule with its values, some of them ahead of it.

Tested on: 997537-175-T-J1-PDC complex spheroid viability
Assay: Anticancer human tumor 997537-175-T-J1-PDC patient-derived colon adenocarcinoma cell line growth inhibition [GQUAD]
Conditions: for IC50: curve of first compound; for viability, T/C: stronger effect = lower value
Description: DNA G-quadruplex Stabilizer Agents in Combinations in Complex Spheroids
A high-throughput screen of multi-cell type tumor spheroids was designed to identify active combinations of DNA G-quadruplex stabilizer agents and targeted small molecules. Complex spheroids include a stromal component modeled by human endothelial cells (HUVEC) and fibroblasts modeled by human mesenchymal stem cells (MSCs). The concentration ranges selected for each drug and investigational agent were based upon clinically achievable concentrations if the clinical Cmax of the agent was known.
Compounds. The drugs and investigational agents: pidnarulex (CX-5461; NSC782164), APTO-253 (NSC789042), BRACO-19 (NSC847499), peposertib (NSC802822), ceralasertib (NSC780249), elimusertib (NSC800525), camonsertib (NSC841442), AZD-1390 (NSC803789), olaparib (NSC753686), talazoparib (NSC767125), ART-558 (NSC835418), sotorasib (NSC818433), MRTX-1133 (NSC836407), SN-38 (NSC673596), topotecan (NSC609699), etoposide (NSC141540), doxorubicin (NSC123127), gemcitabine (NSC613327), 5-fluorouracil (NSC19893), paclitaxel (NSC125973), vemurafenib (NSC761431), panobinostat (NSC761190), R-306465 (JNJ-16241199; NSC773264), adavosertib (NSC754352), TP-3654 (NSC805149), carboplatin (NSC241240), KSQ-4279 (NSC840948), and staurosporine (NSC755774) were obtained from the National Cancer Institute (NCI) Developmental Therapeutics Program Chemical Repository (34). The FDA-approved anticancer drug set is available from the NCI Developmental Therapeutics Program. […] The stock solutions were prepared in dimethyl sulfoxide (DMSO, Sigma-Aldrich, St. Louis, MO, cat. D2650) at 800-fold the tested concentration and stored at -70 degrees C prior to their use. All drugs and investigational agents were tested over a range starting from a high concentration at or near the clinical Cmax and decreasing in half-log increments. If the clinical Cmax for an agent had not been determined, the highest concentration tested was 10 microM.
2.3 Cell Culture. All cells were maintained in an incubator at 37 degrees C and 5% CO2 with 95% humidity. The PDC lines were cultured according to standard operating procedures established by the NCI PDMR. All PDCs were thawed and cultured in Matrigel-coated flasks prepared with a working solution of 1X Ham's F-12 nutrient mix, without supplementation (Invitrogen, cat. 11765054), 100 U/mL penicillin-streptomycin (Invitrogen, cat. 15140122), and 2.5% Matrigel (Corning Inc., cat. 354248) for the first three passages. The 857933-349-R-J2-PDC line was cultured in 6C/Colon 1B media, which includes advanced DMEM/F-12 (Thermo Fisher Scientific, cat. 12634028), 10 mM HEPES (Thermo Fisher Scientific, cat. 15630080), 1X GlutaMAX supplement (Thermo Fisher Scientific, cat. 35050061), 0.1 mg/mL primocin (InvivoGen, cat. ant-pm-2), 10% defined fetal bovine serum, heat inactivated (HyClone Laboratories Inc., cat. SH30070.03HI), 50% L-WRN conditioned media (ATCC, cat. CRL-3276), 1.25 mM N-Acetyl-L-cysteine (Sigma-Aldrich, cat. A9165), 10 mM nicotinamide (Sigma-Aldrich, cat. N0636), 1X B-27 supplement (Thermo Fisher Scientific, cat. 17504044), 1X N-2 supplement (Thermo Fisher Scientific, cat. 17502048), 10 microM Y-27632 dihydrochloride (Tocris Bioscience, cat. 1254), and 50 ng/mL human EGF recombinant protein (Thermo Fisher Scientific, cat. PHG0311). The 485176-168-R4-J1-PDC line was cultured in Panc media, which includes all 6C/Colon 1B media components plus 100 ng/mL human FGF-10 (Thermo Fisher Scientific, cat. 100-26), 500 nM SB-431542 (Selleckchem, cat. S1067), and gastrin (Tocris, cat. 3006).
[…]

[1] = second compound 0.0316 µM, first compound 0.0316 µM
[2] = second compound 0.0316 µM, first compound 0.1 µM
[3] = second compound 0.0316 µM, first compound 0.316 µM
[4] = second compound 0.0316 µM, first compound 1 µM
[5] = second compound 0.0316 µM, first compound 3.16 µM
[6] = second compound 0.0316 µM, first compound 10 µM
[7] = second compound 0.1 µM, first compound 0.0316 µM
[8] = second compound 0.1 µM, first compound 0.1 µM
[9] = second compound 0.1 µM, first compound 0.316 µM
[10] = second compound 0.1 µM, first compound 1 µM
[11] = second compound 0.1 µM, first compound 3.16 µM
[12] = second compound 0.1 µM, first compound 10 µM
[13] = second compound 0.316 µM, first compound 0.0316 µM
[14] = second compound 0.316 µM, first compound 0.1 µM
[15] = second compound 0.316 µM, first compound 0.316 µM
[16] = second compound 0.316 µM, first compound 1 µM
[17] = second compound 0.316 µM, first compound 3.16 µM
[18] = second compound 0.316 µM, first compound 10 µM
[19] = second compound 1 µM, first compound 0.0316 µM
[20] = second compound 1 µM, first compound 0.1 µM
[21] = second compound 1 µM, first compound 0.316 µM
[22] = second compound 1 µM, first compound 1 µM
[23] = second compound 1 µM, first compound 3.16 µM
[24] = second compound 1 µM, first compound 10 µM
[25] = second compound 3.16 µM, first compound 0.0316 µM
[26] = second compound 3.16 µM, first compound 0.1 µM
[27] = second compound 3.16 µM, first compound 0.316 µM
[28] = second compound 3.16 µM, first compound 1 µM
[29] = second compound 3.16 µM, first compound 3.16 µM
[30] = second compound 3.16 µM, first compound 10 µM
[31] = second compound 10 µM, first compound 0.0316 µM
[32] = second compound 10 µM, first compound 0.1 µM
[33] = second compound 10 µM, first compound 0.316 µM
[34] = second compound 10 µM, first compound 1 µM
[35] = second compound 10 µM, first compound 3.16 µM
[36] = second compound 10 µM, first compound 10 µM
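Also: spheroids exposed to the agents for 7 days.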
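For viability, T/C in this document: 100% = DMSO vehicle control viability.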

IC50 (second compound 0.0316 µM): > 10 µM
IC50 (second compound 0.1 µM): > 10 µM
IC50 (second compound 0.316 µM): 5.74 µM
IC50 (second compound 1 µM): > 10 µM
IC50 (second compound 3.16 µM): > 10 µM
IC50 (second compound 10 µM): > 10 µM
Compound: COc1cc(C2c3cc4c(cc3C(OC3OC5COC(C)OC5C(O)C3O)C3COC(=O)C23)OCO4)cc(OC)c1O (centres undefined) + Cc1cnc(CNC(=O)c2c(=O)c3ccc(N4CCCN(C)CC4)nc3n3c2sc2ccccc23)cn1
viability, T/C [1]: 113%
viability, T/C [2]: 97.7%
viability, T/C [3]: 101%
viability, T/C [4]: 60.2%
viability, T/C [5]: 78.6%
viability, T/C [6]: 53%
viability, T/C [7]: 109%
viability, T/C [8]: 96.5%
viability, T/C [9]: 84.9%
viability, T/C [10]: 71.3%
viability, T/C [11]: 63.2%
viability, T/C [12]: 76.7%
viability, T/C [13]: 78%
viability, T/C [14]: 109%
viability, T/C [15]: 104%
viability, T/C [16]: 89.1%
viability, T/C [17]: 60%
viability, T/C [18]: 40.9%
viability, T/C [19]: 88.1%
viability, T/C [20]: 84.1%
viability, T/C [21]: 97.3%
viability, T/C [22]: 101%
viability, T/C [23]: 75.3%
viability, T/C [24]: 63.3%
viability, T/C [25]: 62.1%
viability, T/C [26]: 99.2%
viability, T/C [27]: 104%
viability, T/C [28]: 86.2%
viability, T/C [29]: 76.4%
viability, T/C [30]: 50.7%
viability, T/C [31]: 71.4%
viability, T/C [32]: 84.9%
viability, T/C [33]: 106%
viability, T/C [34]: 98.5%
viability, T/C [35]: 88.6%
viability, T/C [36]: 69.5%

IC50 (second compound 0.0316 µM): 1.93 µM
IC50 (second compound 0.1 µM): 2.11 µM
IC50 (second compound 0.316 µM): 4.01 µM
IC50 (second compound 1 µM): 1.96 µM
IC50 (second compound 3.16 µM): 1.84 µM
IC50 (second compound 10 µM): 1.62 µM
Compound: O=C(NO)c1cnc(N2CCN(S(=O)(=O)c3ccc4ccccc4c3)CC2)nc1 + Cc1cnc(CNC(=O)c2c(=O)c3ccc(N4CCCN(C)CC4)nc3n3c2sc2ccccc23)cn1
viability, T/C [1]: 107%
viability, T/C [2]: 92.3%
viability, T/C [3]: 96.3%
viability, T/C [4]: 81.2%
viability, T/C [5]: 26.8%
viability, T/C [6]: 0.4%
viability, T/C [7]: 105%
viability, T/C [8]: 97%
viability, T/C [9]: 80.7%
viability, T/C [10]: 69%
viability, T/C [11]: 41.7%
viability, T/C [12]: 0.47%
viability, T/C [13]: 94.7%
viability, T/C [14]: 100%
viability, T/C [15]: 85.6%
viability, T/C [16]: 73.2%
viability, T/C [17]: 69.8%
viability, T/C [18]: 0.31%
viability, T/C [19]: 83.9%
viability, T/C [20]: 90%
viability, T/C [21]: 104%
viability, T/C [22]: 93%
viability, T/C [23]: 19.4%
viability, T/C [24]: 0.31%
viability, T/C [25]: 104%
viability, T/C [26]: 116%
viability, T/C [27]: 93.5%
viability, T/C [28]: 83.2%
viability, T/C [29]: 21.4%
viability, T/C [30]: 1.15%
viability, T/C [31]: 108%
viability, T/C [32]: 88.7%
viability, T/C [33]: 103%
viability, T/C [34]: 77.5%
viability, T/C [35]: 11.4%
viability, T/C [36]: 0.29%
